Literature values in patent US20040198838A1, “Pharmaceutical compositions containig terbinafin and use thereof” (priority 2001, published 2004).

Key:
[1] = target: CYP2D6 (Homo sapiens, UniProt P10635)
Sequence of CYP2D6 (P10635 whole entry): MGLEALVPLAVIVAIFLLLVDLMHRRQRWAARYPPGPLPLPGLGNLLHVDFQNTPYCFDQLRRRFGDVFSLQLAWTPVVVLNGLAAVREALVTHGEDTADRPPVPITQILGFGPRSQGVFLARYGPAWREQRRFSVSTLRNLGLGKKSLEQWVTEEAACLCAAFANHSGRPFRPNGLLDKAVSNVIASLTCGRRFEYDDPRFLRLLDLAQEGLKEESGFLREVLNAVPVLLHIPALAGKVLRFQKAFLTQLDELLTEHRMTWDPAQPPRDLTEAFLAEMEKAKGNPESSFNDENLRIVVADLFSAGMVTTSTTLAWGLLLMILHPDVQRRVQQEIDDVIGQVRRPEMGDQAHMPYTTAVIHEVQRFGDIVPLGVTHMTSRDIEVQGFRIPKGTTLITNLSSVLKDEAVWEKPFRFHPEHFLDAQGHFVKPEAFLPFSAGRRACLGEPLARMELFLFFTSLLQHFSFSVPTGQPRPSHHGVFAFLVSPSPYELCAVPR

CN(C/C=C/C#CC(C)(C)C)Cc1cccc2ccccc12 [terbinafine, Terbinafine]
effective half-life (in vivo): about 36 hours | reduction of clearance (patients with renal impairment (creatinine clearance up to 50 ml/min) or hepatic cirrhosis): approximately 50% | area under the curve over 24 hours (AUC) (single 250 mg terbinafine dose): about 4.56 μg.hour/ml | peak drug plasma concentration (Cmax) (single 250 mg terbinafine dose): about 1 μg/ml | time to peak drug plasma concentration (single 250 mg terbinafine dose): ≤ 2 h | factor of AUC increase in steady state versus single dose (steady state): 2.5 | increase of peak blood concentration (Cmax) in steady state versus single dose (steady state): 25% | change in AUC when administered with a meal (with a meal): moderate increase | inhibition of CYP2D6 [1]: potent inhibitor
